The subject of assay [1] is B16 melanoma cancer cells. The assay is described as follows: B16 melanoma model in mice (tumor weight). Type of assay: in vivo. The following applies: B16 melanoma cells (10^6) s.c. in mice; 1 mg peptide s.c. on day 7; tumours weighed on day 12. As to the method: FIG. 3 Prevention of cancer growth by cyclic GLQGE (SEQ ID NO: 5) in form of hydrochloride salt (cyclic GLQGE HCl salt). B16 melanoma cancer cells were injected subcutaneously in mice. On day 7, injection with 1 mg of the peptide or 0.9% NaCl subcutaneously was performed. On day 12 mice were euthanized and tumors removed and weighed. N=11/11 mice. Data presented as mean+SEM.
The cyclic peptide Gly-Leu-Gln-Gly-Glu (cyclic GLQGE; SEQ ID NO: 5) in form of hydrochloride salt was tested for its ability in prevention of cancer growth in a melanoma model in mice. B16 melanoma cancer cells (10^6 cells) were injected subcutaneously in mice. On day 7, injection with 1 mg of the cyclic GLQGE peptide (SEQ ID NO: 5) or 0.9% NaCl (control mice) subcutaneously was performed. On day 12 mice were euthanized and tumours removed and weighed. N=11/11 mice. Results are shown on FIG. 3 as mean+SEM. […] Thus, the cyclic peptide Gly-Leu-Gin-Gly-Glu (SEQ ID NO: 5) represents a promising therapeutic drug for use in the treatment of cancer.

In assay [2] the test system is breast cancer cell line MDA-MB-231. The assay is described as follows: breast cancer model in mice, MDA-MB-231 intratibial (bioluminescence imaging). Type of assay: in vivo. Conditions: MDA-MB-231 intratibially in CD1 nude mice; 0.1 mg s.c. daily from day 30 for 10 days; read on day 40; vs 0.9% NaCl. As to the method:
FIG. 5 Prevention of breast cancer growth by cyclic GLQGE (SEQ ID NO: 5) in form of hydrochloride salt (cyclic GLQGE HCl salt). Cells from the breast cancer cell line MDA-MB-231 were injected intratibially in mice. Starting on day 30, injection with 0.1 mg/mouse/day of the cyclic peptide Gly-Leu-Gln-Gly-Glu (SEQ ID NO: 5) (cyclic GLQGE HCl salt) for 10 days or 0.9% NaCl subcutaneously was performed. On day 40, the size of the tumour was evaluated by bioluminescence imaging (Bioluminescence imaging was performed by detecting photon signal 5 minutes after D-luciferin injection (150 mg/kg) using an “IVIS Lumina II” imaging system. The resulting images were analysed using the software “Living Image”). RLU=relative light units. The number of animals in each group was N=14/7 mice, in two experiments. * p<0.05 as evaluated by t-test. Data are presented as mean+SEM.
The hydrochloride salt of cyclic peptide Gly-Leu-Gln-Gly-Glu (cyclic GLQGE; SEQ ID NO: 5) was tested for its ability in prevention of breast cancer in mice. […] On day 40, the size of the tumor was evaluated by bioluminescence imaging (Bioluminescence imaging was performed by detecting photon signal 5 minutes after D-luciferin injection (150 mg/kg) using an “IVIS Lumina II” imaging system. The resulting images were analyzed using the software “Living Image”). […]

Structures can show the parent of a compound that is named as a salt. Residues, ends and D or L forms follow the SMILES beside them.

In the case of `CC(C)C[C@@H]1NC(=O)CNC(=O)[C@H](CCC(=O)O)NC(=O)CNC(=O)[C@H](CCC(N)=O)NC1=O` [SEQ ID NO: 5 (HCl salt), Gly-Leu-Gln-Gly-Glu] (HELM PEPTIDE1{E.G.L.Q.G}$PEPTIDE1,PEPTIDE1,1:R1-5:R2$$$V2.0), the “diminution of cancer size (tumor weight) as compared to control mice” value in assay [1] is “approximately 72%”. Moreover, in assay [2], the “size of the tumor by bioluminescence imaging” value is “significantly (p<0.05) diminished”.

The values above are taken from patent US12454551B2, “Peptides as inhibitors of fibrotic matrix accumulation” (Max-Planck-Gesellschaft zur Förderung der Wissenschaften …, priority 2019, dated 2025).
